{"source": "patent US20150065524A1", "about": "“KINASE INHIBITOR POLYMORPHS” (Intellikine LLC, priority 2011, published 2015)", "type_in_all_cases": "physicochemical", "key": {"[1]": {"test": "Stability testing: storage at 40° C./75% RH or 25° C./97% RH, reanalysis by XRPD", "conditions": "for Stability at 40° C./75% RH: salts of Formula I, salt screening; for Solid form after storage at 40° C./75% relative humidity: 8 days storage; for Stability at 40° C./75% RH, reanalysis by XRPD: stored at 40° C./75% RH, after 7 days, 21 days and 35 days; for Solid form by XRPD after storage at 40° C./75% RH: 7 days, samples of entries 38, 39, 41, 42", "protocol": "A sample of J00439 was stored at 40° C./75% RH. […] Thus this solid form (which will be referred to as Form A) was stable to accelerated stability testing conditions. Note that some variations in XRPD peak intensity were observed over time.\nSamples of entries 38, 39, 41, and 42 were stored at 40° C./75% RH. […]"}, "Heating to about 100° C.": {"test": "Heating to about 100° C."}, "[2]": {"test": "Stability testing: storage at 40° C./75% RH or 25° C./97% RH, reanalysis by XRPD", "conditions": "8 days storage"}, "[3]": {"test": "Gravimetric Vapour Sorption (GVS)", "conditions": "for Solid form by XRPD after the GVS experiment: material recovered after GVS; for Weight lost during the first sorption cycle (GVS): from 40 to 90% RH", "description": "There was no hysteresis. The material is non-hygroscopic.\nThe sample was non-hygroscopic, with only 0.16% weight gain in the first sorption cycle."}, "[4]": {"test": "Drying of the solids under vacuum, reanalysis by XRPD", "conditions": "for Solid form after drying: vacuum oven at 40° C. overnight, XRPD and 1H NMR", "protocol": "A sample of each solid was dried in a vacuum oven at 40° C. overnight, then the samples were reanalysed by XRPD and ^1H NMR.\nApproximately 20 mg of compound of Formula I (Form A) were weighed into vials, and 150 microliters of solvent system were added. The vials were agitated at 50° C., 5° C., or cycled between room temperature and 50° C. for 4 to 5 days. Solids were isolated by filtration and characterized by XRPD and thermal analysis. From acetone/5% water at 5° C., a hydrate was isolated (see FIGS. 15 and 16). […] From dimethylacetamide (DMA) cycled between room temperature and 50° C. for 5 days, a solvate was isolated (see FIGS. 17 and 18). […] Inclusion of 10% or more water with DMA prevented formation of DMA solvate."}}}
{"compound": "1,2-Ethane disulfonic acid", "values": [{"measurement": "Stability at 40° C./75% RH", "setting": "[1]", "result": "Stable for 7 days"}]}
{"compound": "CC(C)n1nc(-c2ccc3oc(N)nc3c2)c2c(N)ncnc21", "note": "[DMA solvate]", "values": [{"measurement": "Solid form after heating", "setting": "Heating to about 100° C.", "result": "converted to Form A"}, {"measurement": "Solid form after storage at 25° C./97% relative humidity", "setting": "[2]", "result": "converted to Form A"}, {"measurement": "Solid form after storage at 40° C./75% relative humidity", "setting": "[1]", "result": "converted to Form A"}]}
{"compound": "CC(C)n1nc(-c2ccc3oc(N)nc3c2)c2c(N)ncnc21", "note": "[Form A, 5-(4-amino-1-isopropyl-1H-pyrazolo[3,4-d]pyrimidin-3-yl)benzo[d]oxazol-2-Amine]", "values": [{"measurement": "Hygroscopicity by GVS", "setting": "[3]", "result": "non-hygroscopic"}, {"measurement": "Solid form by XRPD after the GVS experiment", "setting": "[3]", "result": "still pattern A"}, {"measurement": "GVS weight change over the whole experiment", "setting": "[3]; whole GVS experiment", "result": 0.1, "unit": "%"}, {"measurement": "Stability at 40° C./75% RH, reanalysis by XRPD", "setting": "[1]", "result": "stable"}, {"measurement": "Stability at 40° C./75% RH, reanalysis by XRPD", "setting": "[1]; listed as J00439", "result": "still pattern A"}]}
{"compound": "CC(C)n1nc(-c2ccc3oc(N)nc3c2)c2c(N)ncnc21", "note": "[Form B]", "values": [{"measurement": "Weight lost during the first sorption cycle (GVS)", "setting": "[3]; first sorption cycle", "result": 28, "unit": "% wt"}, {"measurement": "Solid form by XRPD after the GVS experiment", "setting": "[3]", "result": "desolvated to Form A"}, {"measurement": "Solid form by XRPD after storage at 40° C./75% RH", "setting": "[1]", "result": "turned into Form A"}, {"measurement": "Solid form after drying", "setting": "[4]", "result": "only partially desolvated"}]}
{"compound": "CC(C)n1nc(-c2ccc3oc(N)nc3c2)c2c(N)ncnc21", "note": "[Form C]", "values": [{"measurement": "Hygroscopicity by GVS", "setting": "[3]", "result": "non-hygroscopic"}, {"measurement": "Weight loss on desorption (GVS)", "setting": "[3]; between 90 and 0% RH", "result": 0.38, "unit": "%"}, {"measurement": "Weight gain in the first sorption cycle (GVS)", "setting": "[3]; first sorption cycle", "result": 0.16, "unit": "%"}, {"measurement": "Solid form by XRPD after the GVS experiment", "setting": "[3]", "result": "still Form C"}, {"measurement": "Solid form by XRPD after storage at 40° C./75% RH", "setting": "[1]", "result": "still of Form C"}, {"measurement": "Solid form after drying", "setting": "[4]", "result": "stable on drying"}]}
{"compound": "CC(C)n1nc(-c2ccc3oc(N)nc3c2)c2c(N)ncnc21", "note": "[Form E]", "values": [{"measurement": "Weight lost during the first sorption cycle (GVS)", "setting": "[3]; first sorption cycle", "result": 28, "unit": "% wt"}, {"measurement": "Solid form by XRPD after the GVS experiment", "setting": "[3]", "result": "turned to Form A"}, {"measurement": "Solid form by XRPD after storage at 40° C./75% RH", "setting": "[1]", "result": "turned into Form A"}, {"measurement": "Solid form after drying", "setting": "[4]", "result": "desolvated to Form A"}]}
{"compound": "CC(C)n1nc(-c2ccc3oc(N)nc3c2)c2c(N)ncnc21", "note": "[hydrate]", "values": [{"measurement": "Solid form by XRPD after the GVS experiment", "setting": "[3]", "result": "converted to Form A"}, {"measurement": "Solid form after heating", "setting": "Heating to about 100° C.", "result": "converted to Form A"}, {"measurement": "Solid form after storage at 25° C./97% relative humidity", "setting": "[2]", "result": "converted to Form A"}, {"measurement": "Solid form after storage at 40° C./75% relative humidity", "setting": "[1]", "result": "converted to Form A"}, {"measurement": "Solid form after vacuum drying", "setting": "[4]; vacuum drying", "result": "converted to Form A"}]}
{"compound": "Cc1ccc(S(=O)(=O)O)cc1", "note": "[p-Toluene sulfonic acid]", "values": [{"measurement": "Stability at 40° C./75% RH", "setting": "[1]", "result": "Changes pattern after 3 days,"}]}
{"compound": "Ethane sulfonic acid", "values": [{"measurement": "Stability at 40° C./75% RH", "setting": "[1]", "result": "Deliquescent"}]}
{"compound": "Maleic acid", "values": [{"measurement": "Stability at 40° C./75% RH", "setting": "[1]", "result": "Stable for 7 days"}]}
{"compound": "Methane sulfonic acid", "values": [{"measurement": "Stability at 40° C./75% RH", "setting": "[1]", "result": "Deliquescent"}]}
